Data published in PubChem BioAssay (NCI).
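Briefly, cells in 96-well plates were exposed to five compound concentrations for 48 h, and endpoints were estimated by linear interpolation. The concentration for 50% growth inhibition is given as GI50. TGI is the concentration that stops growth completely.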

Tests used:
Assay in all cases: NCI anticancer screen, dose series, 48 h
A498 renal = tested on: A498 renal
HCT-116 colon = tested on: HCT-116 colon
KM12 colon = tested on: KM12 colon
NCI-H522 lung = tested on: NCI-H522 lung
SF-268 CNS = tested on: SF-268 CNS
CAKI-1 renal = tested on: CAKI-1 renal
DU-145 prostate = tested on: DU-145 prostate
MDA-MB-435 = tested on: MDA-MB-435
SR leukemia = tested on: SR leukemia
T-47D breast = tested on: T-47D breast
TK-10 renal = tested on: TK-10 renal

**Q.** Which TGI (A498 renal) does the source give for `COc1cc(N=Nc2cccc(S(=O)(=O)O)c2)c(C)cc1N=Nc1ccc(/C=C/c2ccc(N=[N+]([O-])c3ccc(/C=C/c4ccc(N=Nc5cc(C)c(N=Nc6cccc(S(=O)(=O)O)c6)cc5OC)cc4)c(S(=O)(=O)O)c3)cc2S(=O)(=O)O)cc1` here?
**A.** > 100 µM

**Q.** What about the TGI (HCT-116 colon) of the same molecule?
**A.** > 100 µM

**Q.** What about the TGI (KM12 colon) of the same molecule?
**A.** > 100 µM

**Q.** What about the TGI (NCI-H522 lung) of the same molecule?
**A.** > 100 µM

**Q.** What about the TGI (SF-268 CNS) of the same molecule?
**A.** > 100 µM

**Q.** With `COC(=O)C(C)N1C(=O)c2ccccc2I1OC(C)=O` (stereo unspecified) as the molecule, how does the GI50 (CAKI-1 renal) read?
**A.** > 100 µM

**Q.** What about the TGI (CAKI-1 renal) of the same molecule?
**A.** > 100 µM

**Q.** And the GI50 (DU-145 prostate)?
**A.** > 100 µM

**Q.** What about the TGI (DU-145 prostate) of the same molecule?
**A.** > 100 µM

**Q.** What about the GI50 (KM12 colon) of the same molecule?
**A.** > 100 µM

**Q.** And the TGI (KM12 colon)?
**A.** > 100 µM

**Q.** What about the GI50 (MDA-MB-435) of the same molecule?
**A.** > 100 µM

**Q.** And the TGI (MDA-MB-435)?
**A.** > 100 µM

**Q.** What about the GI50 (NCI-H522 lung) of the same molecule?
**A.** 39.8 µM

**Q.** What about the TGI (NCI-H522 lung) of the same molecule?
**A.** > 100 µM

**Q.** And the GI50 (SF-268 CNS)?
**A.** 69 µM

**Q.** And the TGI (SF-268 CNS)?
**A.** > 100 µM

**Q.** What about the GI50 (SR leukemia) of the same molecule?
**A.** 19.7 µM

**Q.** What about the TGI (SR leukemia) of the same molecule?
**A.** 49.2 µM

**Q.** And the GI50 (T-47D breast)?
**A.** 21 µM

**Q.** What about the TGI (T-47D breast) of the same molecule?
**A.** 82.6 µM

**Q.** And the GI50 (TK-10 renal)?
**A.** 29.2 µM

**Q.** And the TGI (TK-10 renal)?
**A.** > 100 µM

**Q.** `CC(C)(C)OC(=O)NC(Cc1ccccc1)C(=O)N[C@H]1c2ccsc2/C(=N/O)[C@H]1O` (stereo partly specified) was tested. Which TGI (A498 renal) did it give?
**A.** > 100 µM

**Q.** And the TGI (CAKI-1 renal)?
**A.** > 100 µM

**Q.** And the TGI (DU-145 prostate)?
**A.** > 100 µM

**Q.** And the TGI (HCT-116 colon)?
**A.** > 100 µM

**Q.** And the TGI (MDA-MB-435)?
**A.** > 100 µM

**Q.** And the TGI (SR leukemia)?
**A.** > 100 µM

**Q.** And the TGI (T-47D breast)?
**A.** > 100 µM

**Q.** What about the TGI (TK-10 renal) of the same molecule?
**A.** > 100 µM
